Source: patent US7732604B2, “Triazolopyrazine derivatives” (Pfizer Inc., priority 2006, dated 2010)
Like-named read-outs stand apart in the source and are kept apart here.

Molecular target: T1, HGFR (Homo sapiens, UniProt P08581)
T1 construct: purchased Upstate 14-526
Assay: HGFR continuous-coupled spectrophotometric assay (tyrosine kinase activity on Met-2 substrate peptide)
Assay type: biochemical
Conditions: HGFR 50 nM, Met-2 peptide 0.5 mM, ATP 300 μM, 37° C., absorbance 340 nm

T1 sequence (P08581 974-1390 limits assumed): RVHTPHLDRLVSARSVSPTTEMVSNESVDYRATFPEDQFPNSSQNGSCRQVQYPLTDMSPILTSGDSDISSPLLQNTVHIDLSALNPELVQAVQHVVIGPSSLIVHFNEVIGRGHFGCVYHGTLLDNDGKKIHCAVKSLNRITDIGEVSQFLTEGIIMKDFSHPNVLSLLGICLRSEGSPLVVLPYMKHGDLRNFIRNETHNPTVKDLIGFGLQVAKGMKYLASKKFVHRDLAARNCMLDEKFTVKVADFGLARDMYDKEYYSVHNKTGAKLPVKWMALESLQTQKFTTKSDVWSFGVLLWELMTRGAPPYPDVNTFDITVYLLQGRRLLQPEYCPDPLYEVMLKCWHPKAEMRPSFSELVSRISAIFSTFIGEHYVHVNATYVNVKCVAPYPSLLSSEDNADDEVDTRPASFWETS

SMILES	Ki (read-out: Ki) [nM]	Ki (Ki) [nM]
COC(=O)C(C)(C)n1cc(-c2cnc3nnn(Cc4ccc5ncccc5c4)c3n2)cn1 [Example 65, 2-Methyl-2-[4-(3-quinolin-6-ylmethyl-3H-[1,2,3]triazolo[4,5-b]pyrazin-5-yl)-pyrazol-1-yl]-propionic acid methyl ester]	47	
CC(C)(C(N)=O)n1cc(-c2cnc3nnn(Cc4ccc5ncccc5c4)c3n2)cn1 [Example 67, 2-[4-(3-Quinolin-6-ylmethyl-3H-[1,2,3]triazolo[4,5-b]pyrazin-5-yl)-pyrazol-1-yl]-isobutyramide]	41	
CC(C)(C(=O)O)n1cc(-c2cnc3nnn(Cc4ccc5ncccc5c4)c3n2)cn1 [Example 68, 2-Methyl-2-[4-(3-quinolin-6-ylmethyl-3H-[1,2,3]triazolo[4,5-b]pyrazin-5-yl)-pyrazol-1-yl]-propionic acid]	27	
CC(C)N(CCO)c1cnc2nnn(Cc3ccc4ncccc4c3)c2n1 [Example 73, 2-{isopropyl[1-(quino-lin-6-yl-methyl)-1H-[1,2,3]tri-azolo[4,5-b]py-razyl-6-yl]ami-no}ethanol]	37	
CCN(CCO)c1cnc2nnn(Cc3ccc4ncccc4c3)c2n1 [Example 74, 2-{ethyl[1-(quino-lin-6-yl-methyl)-1H-[1,2,3]tri-azolo[4,5-b]py-razin-6-yl]ami-no}ethanol]	33	
OC[C@@H]1CCCN1c1cnc2nnn(Cc3ccc4ncccc4c3)c2n1 [Example 76, {(2S)-1-[1-(quino-lin-6-yl-methyl)-1H-[1,2,3]tri-azolo[4,5-b]pyra-zin-6-yl]pyr-rolidin-2-yl}methanol]	65	
OCCN(CCO)c1cnc2nnn(Cc3ccc4ncccc4c3)c2n1 [Example 77, 2,2′-{[1-(quino-lin-6-yl-methyl)-1H-[1,2,3]tri-azolo[4,5-b]py-razin-6-yl]imi-no}diethanol]		19
CN(CCO)c1cnc2nnn(Cc3ccc4ncccc4c3)c2n1 [Example 78, 2-{methyl[1-(quino-lin-6-yl-methyl)-1H-[1,2,3]tri-azolo[4,5-b]py-razin-6-yl]ami-no}ethanol]	37	
CS(=O)(=O)C1CCN(c2cnc3nnn(Cc4ccc5ncccc5c4)c3n2)C1 (stereo not drawn) [Example 81, 6-({6-[3-(meth-ylsulfonyl)pyr-rolidin-1-yl]-1H-[1,2,3]tri-azolo[4,5-b]pyra-zin-1-yl}meth-yl)quinoline]	43	
O=C1CN(c2cnc3nnn(Cc4ccc5ncccc5c4)c3n2)CCN1 [Example 83, 4-[1-(quinolin-6-yl-methyl)-1H-[1,2,3]tri-azolo[4,5-b]py-razin-6-yl]pipe-razin-2-one]	34	
CCCN(CCO)c1cnc2nnn(Cc3ccc4ncccc4c3)c2n1 [Example 84, 2-{propyl[1-(quino-lin-6-yl-methyl)-1H-[1,2,3]tri-azolo[4,5-b]pyra-zin-6-yl]amino}ethanol]	26	
CCc1nc(CN(C)c2cnc3nnn(Cc4ccc5ncccc5c4)c3n2)no1 [Example 87, N-[(5-ethyl-124-oxa-diazol-3-yl)meth- ]-N-meth-yl-1-(quino-lin-6-yl-methyl)-1H-[1,2,3]tri-azolo[4,5-b]pyra-zin-6-amine]	54	
CC1C(=O)N(C)CCN1c1cnc2nnn(Cc3ccc4ncccc4c3)c2n1 (stereo not drawn) [Example 88, 13-dimethyl-4-[1-(quino-lin-6-yl-methyl)-1H-[1,2,3]tri-azolo[4,5-b]pyra-zin-6-yl]pipe-razin-2-one]	50	
CN1CCN(c2cnc3nnn(Cc4ccc5ncccc5c4)c3n2)CC1=O [Example 89, 1-methyl-4-[1-(quino-lin-6-yl-methyl)-1H-[1,2,3]tri-azolo[4,5-b]pyra-zin-6-yl]pipe-razin-2-one]	41	
CC1(CO)CCCN(c2cnc3nnn(Cc4ccc5ncccc5c4)c3n2)C1 (stereo not drawn) [Example 90, {3-methyl-1-[1-(quino-lin-6-yl-methyl)-1H-[1,2,3]tri-azolo[4,5-b]pyra-zin-6-yl]pipe-ridin-3-yl}methanol]	39	
CN(Cc1cc(-c2ccccn2)no1)c1cnc2nnn(Cc3ccc4ncccc4c3)c2n1 [Example 93, N-methyl-N-[(3-pyri-din-2-ylisoxa-zol-5-yl)meth-yl]-1-(quino-lin-6-yl-methyl)-1H-[1,2,3]tri-azolo[4,5-b]pyra-zin-6-amine]	29	
CC1(CO)CCN(c2cnc3nnn(Cc4ccc5ncccc5c4)c3n2)CC1 [Example 94, {4-methyl-1-[1-(quino-lin-6-yl-methyl)-1H-[1,2,3]tri-azolo[4,5-b]pyra-zin-6-yl]pipe-ridin-4-yl}methanol]	36	

Continued by falling Ki (read-out: Ki), values first:

Ki (read-out: Ki) [nM]	SMILES	Ki (Ki) [nM]
25	CCc1noc(CN(C)c2cnc3nnn(Cc4ccc5ncccc5c4)c3n2)n1 [Example 91, N-[(3-ethyl-124-oxa-diazol-5-yl)meth-yl]-N-meth-yl-1-(quino-lin-6-yl-methyl)-1H-[1,2,3]tri-azolo[4,5-b]pyra-zin-6-amine]	
23	COCCNc1cnc2nnn(Cc3ccc4ncccc4c3)c2n1 [Example 71, N-(2-meth-oxyethyl)-1-(quino-lin-6-yl-methyl)-1H-[1,2,3]tri-azolo[4,5-b]py-rain-6-amine]	
23	CC1C(=O)NCCN1c1cnc2nnn(Cc3ccc4ncccc4c3)c2n1 (stereo not drawn) [Example 75, 3-methyl-4-[1-(quino-lin-6-yl-methyl)-1H-[1,2,3]tri-azolo[4,5-b]py-razin-6-yl]pipe-razin-2-one]	
22	Cc1n[nH]c(C)c1-c1cnc2nnn(Cc3ccc4ncccc4c3)c2n1 [Example 63, 6-[6-(3,5-Dimethyl-1H-pyrazol-4-yl)-[1,2,3]triazolo[4,5-b]pyrazin-1-ylmethyl]-quinoline]	
21	OCC1CCN(c2cnc3nnn(Cc4ccc5ncccc5c4)c3n2)CC1 [Example 80, {1-[1-(quinolin-6-yl-methyl)-1H-[1,2,3]tri-azolo[4,5-b]py-razin-6-yl]pipe-ridin-4-yl}methanol]	
21	N#CC1CCN(c2cnc3nnn(Cc4ccc5ncccc5c4)c3n2)CC1 [Example 86, 1-[1-(quinolin-6-yl-methyl)-1H-[1,2,3]tri-azolo[4,5-b]py-razin-6-yl]pipe-ridine-4-carbonitrile]	
21	O[C@@H]1CCN(c2cnc3nnn(Cc4ccc5ncccc5c4)c3n2)C[C@H]1O [Example 99, (3R,4R)-1-[1-(quino-lin-6-yl-methyl)-1H-[1,2,3]tri-azolo[4,5-b]pyra-zin-6-yl]pipe-ridine-3,4-diol]	
20	CN(Cc1noc(C2CC2)n1)c1cnc2nnn(Cc3ccc4ncccc4c3)c2n1 [Example 95, N-[(5-cyclo-propyl-1,2,4-oxa-diazol-3-yl)meth-yl]-N-methyl-1-(quino-lin-6-yl-methyl)-1H-[1,2,3]tri-azolo[4,5-b]pyra-zin-6-amine]	
20	CCC1C(=O)NCCN1c1cnc2nnn(Cc3ccc4ncccc4c3)c2n1 (stereo not drawn) [Example 97, 3-ethyl-4-[1-(quino-lin-6-yl-methyl)-1H-[1,2,3]tri-azolo[4,5-b]pyra-zin-6-yl]pipe-razin-2-one]	
18	COC(=O)Cn1cc(-c2cnc3nnn(Cc4ccc5ncccc5c4)c3n2)cn1 [Example 66, [4-(3-Quinolin-6-ylmethyl-3H-[1,2,3]triazolo[4,5-b]pyrazin-5-yl)-pyrazol-1-yl]-acetic acid methyl ester]	
17	OC[C@@H]1C[C@H](F)CN1c1cnc2nnn(Cc3ccc4ncccc4c3)c2n1 [Example 96]	
16	c1cnc2ccc(Cn3nnc4ncc(N5CCC(CCn6cccn6)CC5)nc43)cc2c1 [Example 92, 6-[(6-{4-[2-(1H-pyra-zol-1-yl)eth-yl]piperidin-1-yl}-1H-[1,2,3]tri-azolo[4,5-b]pyra-zin-1-yl)meth-yl]quinoline]	
15	CCN1CCN(c2cnc3nnn(Cc4ccc5ncccc5c4)c3n2)C(C)C1=O (stereo not drawn) [Example 82, 1-ethyl-3-meth-yl-4-[1-(quino-lin-6-yl-methyl)-1H-[1,2,3]tri-azolo[4,5-b]pyra-zin-6-yl]pipe-razin-2-one]	
13	c1cnc2ccc(Cn3nnc4ncc(-c5cnn([C@H]6CCOC6)c5)nc43)cc2c1 [Example 62, 6-{6-[(S)-1-(Tetrahydro-furan-3-yl)-1H-pyrazol-4-yl]-[1,2,3]triazolo[4,5-b]pyrazin-1-ylmethyl}-quinoline]	
13	c1cnc2ccc(Cn3nnc4ncc(N5CCc6[nH]ncc6C5)nc43)cc2c1 [Example 98, 6-{[6-(1,4,6,7-tetra-hydro-5H-pyra-zolo[4,3-c]pyri-din-5-yl)-1H-[1,2,3]tri-azolo[4,5-b]pyra-zin-1-yl]meth-yl}quinoline]	
12	CN(CCS(C)(=O)=O)c1cnc2nnn(Cc3ccc4ncccc4c3)c2n1 [Example 85, N-methyl-N-[2-(meth-ylsulfonyl)ethyl]-1-(quino-lin-6-yl-methyl)-1H-[1,2,3]tri-azolo[4,5-b]pyra-zin-6-amine]	
11	CNc1cnc2nnn(Cc3ccc4ncccc4c3)c2n1 [Example 57, Methyl-(3-quinolin-6-ylmethyl-3H-[1,2,3]triazolo[4,5-b]pyrazin-5-yl)-amine]	
11	CC(O)Cn1cc(-c2cnc3nnn(Cc4ccc5ncccc5c4)c3n2)cn1 (stereo not drawn) [Example 59, 1-[4-(3-Quinolin-6-ylmethyl-3H-[1,2,3]triazolo[4,5-b]pyrazin-5-yl)-pyrazol-1-yl]-propan-2-ol]	
11	O=C1CCN(c2cnc3nnn(Cc4ccc5ncccc5c4)c3n2)CCN1 [Example 79, 1-[1-(quinolin-6-yl-methyl)-1H-[1,2,3]tri-azolo[4,5-b]py-razin-6-yl]-14-di-azepan-5-one]	
10	c1cnc2ccc(Cn3nnc4ncc(-c5cnn([C@@H]6CCOC6)c5)nc43)cc2c1 [Example 61, 6-{6-[(R)-1-(Tetrahydro-furan-3-yl)-1H-pyrazol-4-yl]-[1,2,3]triazolo[4,5-b]pyrazin-1-ylmethyl}-quinoline]	
4	Cn1nc(C(F)(F)F)cc1-c1cnc2nnn(Cc3ccc4ncccc4c3)c2n1 [Example 64, 6-[6-(2-Methyl-5-trifluoromethyl-2H-pyrazol-3-yl)-[1,2,3]triazolo[4,5-b]pyrazin-1-ylmethyl]-quinoline]	
3	c1cnc2ccc(Cn3nnc4ncc(-c5ccn[nH]5)nc43)cc2c1 [Example 69, 6-[6-(2H-Pyrazol-3-yl)-[1,2,3]triazolo[4,5-b]pyrazin-1-ylmethyl]-quinoline]	
